In patent US11414437B2, “Borate compound, and synthesis method therefor and uses thereof” (CHENGDU ORIGIN BIOTECHNOLOGY LIMITED COMPANY, priority 2017, dated 2022):
pIC50: −log10 of the molar value. Like-named read-outs stand apart in the source and are kept apart here.

How the values were obtained:
[1] = High-temperature and high-humidity accelerated stability test; type: physicochemical; details: compared with compounds 8l, MLN9708, MLN2238 of the prior art
From the text: In addition, the compound of the present invention has better stability.

hERG potassium channel = hERG potassium channel (Homo sapiens, UniProt Q12809); test: Inhibition test of hERG potassium channel of heart (patch clamp); type: cell-based; details: for hERG current inhibition ratio % / pIC50: n 3; for inhibitory effect on the hERG potassium channel (judged by general standard): judged by the standard of b169; for pIC50: patch clamp
Sequence of hERG potassium channel (Q12809 whole entry): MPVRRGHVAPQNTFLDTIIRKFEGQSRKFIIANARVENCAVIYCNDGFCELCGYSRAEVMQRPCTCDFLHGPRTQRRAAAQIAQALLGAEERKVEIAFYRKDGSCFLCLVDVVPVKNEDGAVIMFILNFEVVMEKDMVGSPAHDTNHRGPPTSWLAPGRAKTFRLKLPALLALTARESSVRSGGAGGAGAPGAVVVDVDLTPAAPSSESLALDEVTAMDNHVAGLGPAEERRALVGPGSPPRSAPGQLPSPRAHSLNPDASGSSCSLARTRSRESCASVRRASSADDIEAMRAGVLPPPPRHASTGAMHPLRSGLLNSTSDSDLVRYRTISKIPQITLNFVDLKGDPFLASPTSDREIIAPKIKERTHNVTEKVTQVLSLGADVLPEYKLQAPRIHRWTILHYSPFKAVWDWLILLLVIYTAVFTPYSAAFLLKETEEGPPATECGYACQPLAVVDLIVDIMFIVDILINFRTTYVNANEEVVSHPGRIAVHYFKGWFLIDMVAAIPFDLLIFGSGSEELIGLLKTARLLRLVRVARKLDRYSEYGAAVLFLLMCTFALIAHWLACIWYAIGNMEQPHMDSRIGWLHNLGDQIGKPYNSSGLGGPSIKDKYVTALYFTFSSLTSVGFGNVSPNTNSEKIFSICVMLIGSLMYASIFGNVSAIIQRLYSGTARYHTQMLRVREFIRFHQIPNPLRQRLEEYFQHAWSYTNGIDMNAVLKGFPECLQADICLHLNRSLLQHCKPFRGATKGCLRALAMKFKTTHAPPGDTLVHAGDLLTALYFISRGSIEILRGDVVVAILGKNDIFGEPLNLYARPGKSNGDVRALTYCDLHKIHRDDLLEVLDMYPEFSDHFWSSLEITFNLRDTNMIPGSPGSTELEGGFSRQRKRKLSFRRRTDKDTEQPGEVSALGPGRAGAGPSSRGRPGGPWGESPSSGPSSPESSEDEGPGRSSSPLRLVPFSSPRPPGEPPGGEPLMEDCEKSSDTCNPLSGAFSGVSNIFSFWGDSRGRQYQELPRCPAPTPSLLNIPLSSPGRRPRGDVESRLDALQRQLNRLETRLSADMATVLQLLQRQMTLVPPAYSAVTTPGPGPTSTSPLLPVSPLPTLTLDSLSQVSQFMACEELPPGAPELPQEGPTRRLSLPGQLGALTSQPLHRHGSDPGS
From the text: An inhibitory effect of the tested compound on hERG was judged by a general standard (Roche O. et al. ChemBioChem. 2002, 3:455-459.):
When a hERG semi-inhibitory concentration of a medicine exceeded about 30 times of a peak concentration thereof in blood, the concentration was in a relatively safe range (Redfernelt al, Cardiovascular Research, 58, 32-45 (2003)).

SD rats = system: SD rats
From the text: The test was a single-dose toxicity test of SD rats by intragastric administration through mouth.

[2] = system: MM.1S human multiple myeloma SCID mouse transplanted tumor; test: Pharmacodynamic test, SCID mouse transplanted tumor model; type: in vivo; details: 0.0166 mmol/kg intragastric
Method: In the experiment, a SCID mouse transplanted tumor model of a human multiple myeloma cell line MM.1S was used. Specific modeling steps were as follows: frozen MM.1S cells were resuscitated and cultured in vitro according to a routine, and the cells were collected in a logarithmic growth phase, and diluted with PBS to form a tumor cell suspension with a concentration of 5×10^7/ml. […] About 1 week to 2 weeks after injection, the mass was palpable in axillary, and in vivo passage was performed when a tumor volume was larger than 500 mm^3. After the mouse was killed by a neck pulling method, a body surface was disinfected, skin was cut open, aseptic operation was performed, a tumor tissue was peeled off from an axillary subcutaneous tissue, a fibrous capsule was removed, and the tumor was taken out. The tumor was washed clean in normal saline, and then cut, and after removing the central necrotic part, the tumor tissue with good growth, reddish color and fish flesh shape was selected, then was cut into 1 mm×1 mm×1 mm small pieces, and placed in normal saline for later use. The cut tumor was placed in a mouth of a No. 18 trocar, iodized cotton was used to disinfect the side of the armpit close to the back of the mouse, and local inoculation was performed. The transplanted tumor used in the test was the 4th generation of in vivo passage. When the tumor volume of most SCID mice of in vivo passage was larger than 100 mm^3, the tumor volume was measured and calculated, and the mice were randomly grouped according to the tumor volume.
The administration mode was intragastric administration through mouth, with an administration volume of 10 ml/kg. The model control group was given the same volume of solvent intragastrically. The mice were all intragastrically administrated through mouth twice a week for a total of 5 times, i.e., the mice were administrated at the 1st, 5th, 8th, 12th and 15th days of the experiment, with a duration of 18 days.
Doses of different tested samples were equimolar, with a specific dose of 0.0166 mmol/kg; and the model control group was only given normal saline. The medicines were 8b and 8l, as well as Ixazomib Citrate (MLN9708) and Ixazomib (MLN2238).
On the 5th, 8th, 12th, 15th and 18th days after administration, a short diameter (a) and a long diameter (b) of the tumor of each mouse were measured with a vernier caliper, and the tumor volume was calculated according to a formula (a^2×b)/2. A relative tumor volume (RTV) was calculated based on the tumor volume measured and calculated, RTV=Vt/V0. V0 was the tumor volume at random grouping (i.e., d0) and Vt was the tumor volume at each measurement (i.e., dn). A relative tumor proliferation rate of an anti-tumor activity evaluation index was calculated according to the following formula: relative tumor proliferation rate T/C (%): […]
(Note: TRTV was a RTV of the treatment group; and CRTV was a RTV of the model control group. An evaluation standard of a curative effect was T/C %≤40%, and the medicine was effective when P<0.05 after statistical treatment).
After weighing and measuring the tumor on the 18th day, all animals were sacrificed, and the tumor was taken and weighed.

[3] = dose 2, 0.001662 mmol/kg single intragastric dose, 6 female rats, 14 days observation
[4] = dose 2, 0.001662 mmol/kg single intragastric dose, 6 male rats, 14 days observation
[5] = dose 4, 0.00277 mmol/kg single intragastric dose, 6 female rats, 14 days observation
[6] = dose 4, 0.00277 mmol/kg single intragastric dose, 6 male rats, 14 days observation

Compound: CC(C)C[C@H](NC(=O)CNC(=O)c1cc(Br)ccc1Cl)B1OC(=O)c2ccccc2O1 [compound 8a]
- stability under high-temperature and high-humidity accelerated test condition [1]: better stabilities
- hERG current inhibition ratio % (hERG potassium channel; 0.3 μM): 1.47% ±
- hERG current inhibition ratio % (hERG potassium channel; 1 μM): 5.53% ±
- hERG current inhibition ratio % (hERG potassium channel; 3 μM): 4.36% ±
- hERG current inhibition ratio % (hERG potassium channel; 10 μM): 11.24% ±
- hERG current inhibition ratio % (hERG potassium channel; 30 μM): 7.86% ±
- inhibitory effect on the hERG potassium channel (judged by general standard) (hERG potassium channel): no inhibitory effect
- pIC50 (hERG potassium channel): < 4.52

Compound: CC(C)C[C@H](NC(=O)CNC(=O)c1cc(Br)ccc1Cl)B1OC(=O)[C@@H](c2ccccc2)O1 [compound 8b, 2-chloro-5-bromo-N-[2-({(1R)-3-methyl-1-[(5R)-4-oxo-5-phenyl-1,3,2-dioxaborolan-2-yl]butyl}amino)-2-oxoethyl]benzamide]
- Female Suvival (SD rats; dose 1, 0.001108 mmol/kg single intragastric dose, 6 female rats, 14 days observation): 6
- Male Suvival (SD rats; dose 1, 0.001108 mmol/kg single intragastric dose, 6 male rats, 14 days observation): 6
- Female Death (SD rats; [3]): 0
- Female Suvival (SD rats; [3]): 6
- Male Death (SD rats; [4]): 0
- Male Suvival (SD rats; [4]): 6
- Female Suvival (SD rats; dose 3, 0.002216 mmol/kg single intragastric dose, 6 female rats, 14 days observation): 6
- Male Suvival (SD rats; dose 3, 0.002216 mmol/kg single intragastric dose, 6 male rats, 14 days observation): 6
- Female Death (SD rats; [5]): 2
- Female Suvival (SD rats; [5]): 4
- Male Death (SD rats; [6]): 0
- Male Suvival (SD rats; [6]): 6
- maximum tolerance dose (SD rats; female rats, single intragastric dose): 0.002216 mmol/kg
- Female Death (SD rats; female, rat, in vivo, 0.001108 mmol/kg, 14 days): 0
- Female Death (SD rats; female, rat, in vivo, 0.002216 mmol/kg, 14 days): 0
- Male Death (SD rats; male, rat, in vivo, 0.001108 mmol/kg, 14 days): 0
- Male Death (SD rats; male, rat, in vivo, 0.002216 mmol/kg, 14 days): 0
- stability under high-temperature and high-humidity accelerated test condition [1]: better stabilities
- inhibition of tumor growth (in words) ([2]; stronger than 8l, MLN9708, MLN2238 (p<0.01)): significantly inhibited tumor growth
- Tumor weight ([2]; after the 18th day, X ± SD): 0.028 ± 0.025 g
- inhibitory effect on the hERG potassium channel (judged by general standard) (hERG potassium channel): no inhibitory effect
- pIC50 (hERG potassium channel): < 4.52
